Reference: patent US20240025849A1 (MAX DELBRÜCK-CENTRUM FÜR MOLEKULARE MEDIZIN IN DER …, priority 2020, published 2024)
Like-named read-outs stand apart in the source and are kept apart here.

Test system: primary cultured neonatal microglia
Test: LPS induced NO release, Griess assay, laboratory scaled setup;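 as to active: compounds at or above the IC50 cutoff were called inactive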
Type: cell-based, mouse
Conditions: for IC50: Mus musculus, Microglia
Method: Primary cultured neonatal microglia. For preparation of cultured neonatal microglia, P0-P3 mice were used. 10 brains were extracted, meninges and cerebellum were removed and put on ice with Hank's balanced salt solution (HBSS). The dissected brains were washed 3 times before adding 400 μL trypsin (0.1 mg/L) and DNAse (5 μg/L) in phosphate buffered saline (PBS). After 2 min of incubation with this solution, the reaction was blocked by adding plain medium. After removal of the medium, 1 mg DNAse was added and the cells were mechanically dissociated, with a Pasteur pipette followed by a glass pipette. The cells were centrifuged for 10 min at 129 g at 4° C. The supernatant was discarded. The pellet was resuspended in plain medium and plated (2.5 brains/flask) in Poly-L-Lysine coated flasks. The cells were washed after 2 days with PBS and incubated for another 7 days in plain medium. Afterwards the medium was replaced by plain medium with 33% L929 conditioned medium. After 2 days, cells were harvested by shaking them for 30 min at 150 rpm. The supernatant was centrifuged for 10 min at 129 g at 4° C. The cells were plated into a 96 well plate (100 000 cells/well, 200 μL medium per well). This procedure could be repeated 2 times with a 2 day interval.
Griess assay. Cells were seeded according to the protocols described above, after compounds and stimuli were added, 100 μl of supernatant was transferred into a new 96 well plate and 100 μl freshly mixed Griess reagent were added. Griess reagent was composed of reagent A (100 mg Naphthylethylene in 50 ml aqua dest.) and reagent B (1 g Sulfanilamide, […] H3PO4 (85%) in 44 mL aqua dest.) mixed 1:1. The solution was carefully mixed and the absorbance was determined in a microplate reader at a wavelength of 550 nm.
Dissolved sodium nitrite in plain medium served as a standard. Total amount of nitrite was calculated by a linear regression of the standard curve.
The activity of the compounds listed in column 1 of Table 1 as inhibitors of NO production was compared in murine primary cultured neonatal microglia as described above.

[1] = inhibitors of NO production, murine primary cultured neonatal microglia, read-out: IC50
[2] = inhibitors of NO production, murine primary cultured neonatal microglia, read-out: activity class (IC50)
[3] = inhibitors of NO production, murine primary cultured neonatal microglia

| SMILES | IC50 [1] [nM] | IC50 [2] [nM] | IC50 (0.002 to 20 μM, FIG. 9, read-out: IC50, LPS induced NO production (stereoisomers)) [nM] | active [3] | inhibitory effect in the NO release assay (FIG. 9) |
| --- | --- | --- | --- | --- | --- |
| COc1ccc(NC(=O)[C@@H](NC(=O)[C@@H]2CCCN2C(=O)CCc2ccccc2)c2ccc(OC)cc2)cc1 [Compound 13] | 151 | < 200 |  | YES |  |
| COc1ccc(NC(=O)[C@@H](NC(=O)[C@@H]2CCCN2C(=O)CCc2ccoc2)c2ccc(OC)cc2)cc1 [Compound 14, (S)-1-(3-(furan-3-yl)propanoyl)-N—((S)-1-(4-methoxyphenyl)-2-((4-methoxyphenyl)amino)-2-oxoethyl)pyrrolidine-2-carboxamide] | 147 | < 200 |  | YES |  |
| COc1ccc(NC(=O)[C@@H](NC(=O)[C@@H]2CCCN2C(=O)OCc2ccccc2)c2ccccc2)cc1 [Compound 17, benzyl (S)-2-(((S)-2-((4-methoxyphenyl)amino)-2-oxo-1-phenylethyl)carbamoyl)pyrrolidine-1-carboxylate] | 122 | < 200 |  | YES |  |
| COc1ccc(NC(=O)[C@@H](NC(=O)[C@@H]2CCCN2C(=O)CC2CCCCC2)c2ccc(OC)cc2)cc1 [Compound 19, (S)-1-(2-cyclohexylacetyl)-N—((S)-1-(4-methoxyphenyl)-2-((4-methoxyphenyl)amino)-2-oxoethyl)pyrrolidine-2-carboxamide] | 208 | < 1000 |  | YES |  |
| COc1ccc(NC(=O)[C@@H](NC(=O)[C@@H]2CCCN2C(=O)CCC(C)C)c2ccc(OC)cc2)cc1 [Compound 20, (S)—N—((S)-1-(4-methoxyphenyl)-2-((4-methoxyphenyl)amino)-2-oxoethyl)-1-(4-methylpentanoyl)pyrrolidine-2-carboxamide] | 203 | < 1000 |  | YES |  |
| COc1ccc(NC(=O)[C@@H](NC(=O)[C@@H]2CCCN2C(=O)CCc2cn(C)c3ccccc23)c2ccc(OC)cc2)cc1 [Compound 21, (S)—N—((S)-1-(4-methoxyphenyl)-2-((4-methoxyphenyl)amino)-2-oxoethyl)-1-(3-(1-methyl-1H-indol-3-yl)propanoyl)pyrrolidine-2-carboxamide] | 259 | < 1000 |  | YES |  |
| COc1ccc([C@H](NC(=O)[C@@H]2CCCN2C(=O)OCc2ccccc2)C(=O)Nc2ccc3c(c2)CCO3)cc1 [Compound 22, benzyl-(S)-2-(((S)-2-((2,3-dihydrobenzofuran-5-yl)amino)-1-(4-methoxyphenyl)-2-oxoethyl)carbamoyl)pyrrolidine-1-carboxylate] | 231 | < 1000 |  | YES |  |
| COc1ccc(NC(=O)[C@@H](NC(=O)[C@@H]2CCCN2C(=O)C2CCCCC2)c2ccc(OC)cc2)cc1 [Compound 23, (S)-1-(cyclohexanecarbonyl)-N—((S)-1-(4-methoxyphenyl)-2-((4-methoxyphenyl)amino)-2-oxoethyl)pyrrolidine-2-carboxamide] | 1080 | < 10000 |  | YES |  |
| COc1ccc(NC(=O)[C@@H](NC(=O)[C@@H]2CCCN2C(=O)c2ccccc2)c2ccc(OC)cc2)cc1 [Compound 24, (S)-1-benzoyl-N—((S)-1-(4-methoxyphenyl)-2-((4-methoxyphenyl)amino)-2-oxoethyl)pyrrolidine-2-carboxamide] | 1100 | < 10000 |  | YES |  |
| COc1ccc(NC(=O)[C@@H](NC(=O)[C@@H]2CCCN2C(=O)CCc2ccccn2)c2ccc(OC)cc2)cc1 [Compound 25, (S)—N—((S)-1-(4-methoxyphenyl)-2-((4-methoxyphenyl)amino)-2-oxoethyl)-1-(3-(pyridin-2-yl)propanoyl)pyrrolidine-2-carboxamide] | 6880 | < 10000 |  | YES |  |
| COc1ccc([C@H](NC(=O)[C@@H]2CCCN2C(=O)OCc2ccccc2)C(=O)Nc2cnc(C)s2)cc1 [Compound 26, benzyl (S)-2-(((S)-1-(4-methoxyphenyl)-2-((2-methylthiazol-5-yl)amino)-2-oxoethyl)carbamoyl)pyrrolidine-1-carboxylate] | 2500 | < 10000 |  | YES |  |

Further molecules by falling IC50 [1], results first:

| IC50 [1] [nM] | IC50 [2] [nM] | IC50 (0.002 to 20 μM, FIG. 9, read-out: IC50, LPS induced NO production (stereoisomers)) [nM] | SMILES | active [3] | inhibitory effect in the NO release assay (FIG. 9) |
| --- | --- | --- | --- | --- | --- |
| 122 | < 200 |  | COc1ccc(NC(=O)[C@@H](NC(=O)[C@@H]2CCCN2C(=O)CCc2cccs2)c2ccc(OC)cc2)cc1 [Compound 16, (S)—N—((S)-1-(4-methoxyphenyl)-2-((4-methoxyphenyl)amino)-2-oxoethyl)-1-(3-(thiophen-2-yl)propanoyl)pyrrolidine-2-carboxamide] | YES |  |
| 117 | < 200 |  | COc1ccc(NC(=O)[C@@H](NC(=O)[C@@H]2CCCN2C(=O)CCC2CCOCC2)c2ccc(OC)cc2)cc1 [Compound 15, (S)—N—((S)-1-(4-methoxyphenyl)-2-((4-methoxyphenyl)amino)-2-oxoethyl)-1-(3-(tetrahydro-2H-pyran-4-yl)propanoyl)pyrrolidine-2-carboxamide] | YES |  |
| 107 | < 200 | 100 | COc1ccc(NC(=O)[C@@H](NC(=O)[C@@H]2CCCN2C(=O)OCc2ccccc2)c2ccc(OC)cc2)cc1 [Compound 18, (S)-benzyl-2-((S)—(4-methoxyphenylcarbamoyl)(4-methoxyphenyl)methylcarbamoyl)pyrrolidine-1-carboxylate] | YES | shows an inhibitory effect |
| 99.6 | < 100 |  | COc1ccc(NC(=O)[C@@H](NC(=O)[C@@H]2CCCN2C(=O)Cc2ccccc2)c2ccc(OC)cc2)cc1 [Compound 12, (S)—N—((S)-1-(4-methoxyphenyl)-2-((4-methoxyphenyl)amino)-2-oxoethyl)-1-(2-phenylacetyl)pyrrolidine-2-carboxamide] | YES |  |
| 71.7 | < 100 |  | COc1ccc(NC(=O)[C@@H](NC(=O)[C@@H]2CCCN2C(=O)COc2ccccc2)c2ccc(OC)cc2)cc1 [Compound 11, (S)—N—((S)-1-(4-methoxyphenyl)-2-((4-methoxyphenyl)amino)-2-oxoethyl)-1-(2-phenoxyacetyl)pyrrolidine-2-carboxamide] | YES |  |
| 65.5 | < 100 |  | COc1ccc([C@H](NC(=O)[C@@H]2CCCN2C(=O)OCc2ccccc2)C(=O)Nc2cc3n(n2)CCCC3)cc1 [Compound 10, benzyl(S)-2-(((S)-1-(4-methoxyphenyl)-2-oxo-2-((4,5,6,7-tetrahydropyrazolo[1,5-a]pyridin-2-yl)amino)ethyl)carbamoyl)pyrrolidine-1-carboxylate] | YES |  |
| 54.8 | < 100 |  | COc1ccc(NC(=O)[C@@H](NC(=O)[C@@H]2CCCN2C(=O)CCc2ccc(F)cc2)c2ccc(OC)cc2)cc1 [Compound 9, (S)-1-(3-(4-fluorophenyl)propanoyl)-N—((S)-1-(4-methoxyphenyl)-2-((4-methoxyphenyl)amino)-2-oxoethyl)pyrrolidine-2-carboxamide] | YES |  |
| 44.9 | < 50 |  | COc1ccc(NC(=O)[C@@H](NC(=O)[C@@H]2CCCN2C(=O)CCCC2CCCCC2)c2ccc(OC)cc2)cc1 [Compound 7] | YES |  |
| 20.4 | < 50 |  | COc1ccc(NC(=O)[C@@H](NC(=O)[C@@H]2CCCN2C(=O)CCC2CCCCC2)c2ccc(OC)cc2)cc1 [Compound 6, (S)-1-(3-cyclohexylpropanoyl)-N—((S)-1-(4-methoxyphenyl)-2-((4-methoxyphenyl)amino)-2-oxoethyl)pyrrolidine-2-carboxamide] | YES |  |
| 16.7 | < 50 |  | COc1ccc(NC(=O)[C@@H](NC(=O)[C@@H]2CCCN2C(=O)CCC2CCCC2)c2ccc(OC)cc2)cc1 [Compound 5, (S)-1-(3-cyclopentylpropanoyl)-N—((S)-1-(4-methoxyphenyl)-2-((4-methoxyphenyl)amino)-2-oxoethyl)pyrrolidine-2-carboxamide] | YES |  |
| 8.37 | < 50 |  | COc1ccc(NC(=O)[C@@H](NC(=O)[C@@H]2CCCN2C(=O)CCC2CCCCC2)c2ccc(OCCOCCOCCOCCOCCOCCNC(=O)CCCC[C@@H]3SC[C@@H]4NC(=O)N[C@@H]43)cc2)cc1 [Compound 8, (S)-1-(3-cyclohexylpropanoyl)-N—((S)-2-((4-methoxyphenyl)amino)-2-oxo-1-(4-((19-oxo-23-((3aS,4S,6aR)-2-oxohexahydro-1H-thieno[3,4-d]imidazol-4-yl)-3,6,9,12,15-pentaoxa-18-azatricosyl)oxy)phenyl)ethyl)pyrrolidine-2-carboxamide] | YES |  |
